Data taken from patent US20080233132A1, “MULTIPLE SCLEROSIS THERAPY” (priority 2006, published 2008).

Experiments:
γ-secretase [1] = molecular target: T1, γ-secretase (Homo sapiens, UniProt P49768); settings: displacement assay; cited from earlier work
T cells = settings: Minter et al. 2005; cited from earlier work
EAE animals = assay: LY411575 injected into EAE animals; format: in vivo
Description: When LY411575 was injected into EAE animals, the severity of EAE was decreased.

EAE [2] = settings: injected prior to disease onset; Minter et al. 2005; cited from earlier work
CD4+ T cells = assay: cell-culture assay of T cell proliferation and Th1 differentiation; format: cell-based
γ-secretase [3] = molecular target: T1, γ-secretase; settings: recombinant APP C100 substrate; Takahashi et al. 2003; cited from earlier work
aged rats = settings: total dose infused i.v.=1 ug, Fischer et al. 1987; cited from earlier work
EAE [4] = settings: Sanna et al. 2006; cited from earlier work
MS patients = settings: some, but not all, onsets approximately six months following the onset of therapy; cited from earlier work

## C[C@H](NC(=O)Cc1cc(F)cc(F)c1)C(=O)N[C@H](C(=O)OC(C)(C)C)c1ccccc1 [DAPT]
γ-secretase [1]
  competition for the γ-secretase active site: compete moderately

## C[C@H](NC(=O)[C@@H](O)c1cc(F)cc(F)c1)C(=O)N[C@@H]1C(=O)N(C)c2ccccc2-c2ccccc21 [LY411575]
T cells
  Th1 differentiation in vitro: decreased
  effect on T cell proliferation: no effect
EAE animals
  severity of EAE: decreased
EAE [2]
  severity of EAE: lessened
CD4+ T cells
  amount of T cell differentiation of the inflammatory Th1 subset of CD4+ T cells: decreased
  effect on T cell proliferation: no observed effect

## CSc1ccc(/C=C2/C(C)=C(CC(=O)O)c3cc(F)ccc32)cc1 [sulindac sulfide]
γ-secretase [3]
  γ-secretase activity: preferentially inhibits

## NGF: nerve growth factor
Aged rats
  cholinergic neuron atrophy and spatial memory impairment: ameliorate

## glatiramer acetate [GA]
EAE [4]
  progression of EAE: block progression
MS patients
  clinical relapses: modest reduction
